Measured values: patent publication US20080318837A1, “Pharmaceutical Formation For Increased Epithelial Permeability of Glucose-Regulating Peptide” (priority 2003, published 2008)

Columns and labels:
[1] = aqueous solution, physiologic pH; cited from earlier work
[2] = tested on: EpiAirway tracheal/bronchial epithelial cell membrane; assay: Transepithelial electrical resistance (TEER/TER), EpiAirway model; type: cell-based; conditions: Table 6 formulations, 2 mg/mL GLP-1
Protocol: Triplicate samples of each formulation and controls were evaluated using the EpiAirway System in vitro model tracheal/bronchial epithelial cell membrane inserts by MatTek Corp. (Ashland, Mass.), catalog #Air-100.
EpiAirway™ culture membranes were received the day before the experiments started. They were shipped in phenol red-free and hydrocortisone-free Dulbecco's Modified Eagle's Medium (DMEM). Each tissue insert was placed into a well of a 6 well plate containing 0.9 ml of serum free DMEM. The membranes were then cultured for 24 hrs at 37° C./5% CO2 to allow tissues to equilibrate. […]
TEER measurements were read using a Tissue Resistance Measurement Chamber connected to an Epithelial Voltohmeter with the electrode leads, both from World Precision Instruments. First, background TEER was read for each insert on the day the experiment began. After TEER was read, 1 ml fresh media was placed in the bottom of each well in a 6-well plate. […]
The electrodes and a tissue culture blank insert were equilibrated for at least 20 min in fresh media with the power off prior to checking calibration. The background resistance was measured with 1.5 ml media in the Endohm tissue chamber and 300 μl media in a blank Millicell-CM insert. […] For each TEER determination, 300 μl media was added to the insert followed by a 20 min incubation at RT before placement in the Endohm chamber to read TEER. […]

[3] = tested on: EpiAirway tracheal/bronchial epithelial cell membrane; assay: LDH cytotoxicity (cell death) assay, EpiAirway model; type: cell-based
Protocol: Fresh, cell-free media was used as a blank. 50 μl substrate solution (12 ml Assay Buffer added to a fresh bottle of Substrate Mix, made according to the kit) was added to each well and the plates were incubates for 30 min at RT in the dark.

[4] = tested on: EpiAirway tracheal/bronchial epithelial cell membrane
Protocol: Triplicate samples of each formulation and controls were evaluated using the EpiAirway System in vitro model tracheal/bronchial epithelial cell membrane inserts by MatTek Corp. (Ashland, Mass.), catalog #Air-100. […] The epithelial cells are grown on porous membrane-bottomed cell culture inserts at an air-liquid interface, which results in differentiation of the cells to a highly polarized morphology. The apical surface is ciliated with a microvillous ultrastructure and the epithelium produces mucus (the presence of mucin has been confirmed by immunoblotting). The inserts have a diameter of 0.875 cm, providing a surface area of 0.6 cm^2. The cells are plated onto the inserts at the factory approximately three weeks before shipping.
EpiAirway™ culture membranes were received the day before the experiments started. They were shipped in phenol red-free and hydrocortisone-free Dulbecco's Modified Eagle's Medium (DMEM). […]
The cell viability of each tissue culture insert was tested by MTT assay. Cell viability was assessed using the MTT assay (MTT-100, MatTek kit). […] The optical density of the samples was measured at 550 nm on a μQuant optical density plate reader using KCJr software.
The MTT percentage was calculated by dividing the measured MTT value for each formulation by the MTT value of the control formulation multiplied by 100. […]

[5] = after feeding to rats; cited from earlier work
[6] = tested on: ciliary motility; conditions: cited from earlier work
[7] = intraduodenally administered to rats; cited from earlier work
[8] = tested on: aminopeptidases; conditions: cited from earlier work

In the case of `NCCN(CCN)/[N+]([O-])=N/O` [diethylenetriamine/NO], the “NO release rate (time)” value [1] is given as “approximately 20 hours”.
For `CCN(CC)/[N+]([O-])=N/O.CCNCC` [diethylamine/NO], the “NO release rate (time)” value [1] is given as < 3 min.
For “Octylphenolpoly(ethyleneglycolether)x [LDH Control]”, the “% TEER Reduction” value [2] was 100%, the “% LDH” value [3] was 100% and the “% MTT” value [4] was 1%.
In the case of Phaseolus vulgaris hemagglutinin, the oral bioavailability [5] is listed as “more than 10%”.
For “2-alkyl-4-hydroxyquinolines [pyo compound]”, the “concentration producing ciliostasis / inhibiting ciliary motility” value [6] is listed as 50 µg/mL.
In the case of “9-desglycinamide, 8-arginine vasopressin [DGAVP]”, the “bioavailability increase with 1% (w/v) polycarbophil vs aqueous solution” value [7] is listed as 3-5 fold.
In the case of `CC(C)CC(N)B(O)O` (stereo not shown) [boro-leucine], the “enzyme inhibition, times more effective than bestatin” value [8] is given as “more than 100 times” and the “enzyme inhibition, times more effective than puromycin” value [8] is given as “more than 1000 times”.
